Consider 21 molecules from US9682083B2, “Pyrrolo[2,3-D]pyrimidine derivatives, process for their preparation and their use as kinase inhibitors” (NERVIANO MEDICAL SCIENCES S.R.L., priority 2013, dated 2017).

A word on the IC50: it is the concentration needed to halve the response being measured. High values mean weaker potency in that assay, low ones greater potency in that assay.

Where only a bound is given, the exact number is not on record here.

Holding throughout (type): cell-based
The test system of test [1] is LC-2/ad human lung adenocarcinoma, harboring the CCDC6-RET fusion protein. As to the kind of experiment: In vitro cell proliferation assay (CellTiterGlo), LC-2/ad. The settings on record: antiproliferative activity, 144 h exposure. The procedure:
(§1) In Vitro Cell Proliferation Assay
(§2) To evaluate the antiproliferative activity of a compound of formula (I) the following human cell lines were used: A2780 ovarian carcinoma; TT and MZ-CRC-1 medullary thyroid carcinoma, harboring a mutated RET-C634W and RET-M918T receptor respectively; LC-2/ad human lung adenocarcinoma, harboring the CCDC6-RET fusion protein. Exponentially growing cells were seeded and incubated at 37° C. in a humidified 5% CO2 atmosphere using appropriate medium supplemented with 10% Fetal Bovine Serum. 24 hours following cell plating, scalar doses of the compounds dissolved in 0.1% DMSO were added to the medium and cells were exposed to drugs for either 72 hours (A2780) or 144 hours (TT, MZ-CRC-1 and LC-2/ad), according to their different proliferation rate. At the end of treatment, cell proliferation was determined by an intracellular ATP monitoring system (CellTiterGlo—Promega), following manufacturer's instructions, and using an Envision instrument (PerkinElmer) as reader. Data obtained from compound versus vehicle treated cells were compared using Assay Explorer (Symyx Technologies Inc) software. IC50 values were calculated using sigmoidal interpolation curve fitting.
(§3) In the following Table A the antiproliferative activity of representative compounds of formula (I) on two medullary thyroid carcinoma cell lines expressing the aforementioned mutated forms of RET (TT and MZ-CRC-1) and on one lung adenocarcinoma cell line harboring the aforementioned fusion form of RET (LC-2/ad) is reported. As control, the antiproliferative activity of the same compounds on an unrelated non RET-dependent cell line (A2780) is reported. All these compounds show remarkable activity on RET-driven cellular models with respect to the unrelated ones.
A general note: ATP-based viability assays read luminescence as a measure of living cells.

The subject of test [2] is A2780 ovarian carcinoma. Put plainly: In vitro cell proliferation assay (CellTiterGlo), A2780 control line. The settings on record: Homo sapiens, antiproliferative activity, 72 hours exposure, non RET-dependent control cell line. On the procedure:
as §1, §2, §3

Test [3] concerns TT medullary thyroid carcinoma, harboring a mutated RET-C634W receptor. As to the kind of experiment: In vitro cell proliferation assay (CellTiterGlo), TT. As to conditions: Homo sapiens, antiproliferative activity, 144 h exposure. On the procedure:
as §1, §2, §3

On to `CC(C)n1cc(C#Cc2cc(C(=O)NC3CC3)ccc2F)c2c(N)ncnc21` [cmpd 53, 3-{[4-amino-7-(propan-2-yl)-7H-pyrrolo[2,3-d]pyrimidin-5-yl]ethynyl}-N-cyclopropyl-4-fluorobenzamide], for which the half-maximal inhibitory concentration (IC50) in test [1] was determined as 0.009 µM; in test [2], 0.837 µM; in test [3], 0.01 µM.
For `CC(C)n1cc(C#Cc2cc(F)cc(C(=O)NC3CC3)c2)c2c(N)ncnc21` [cmpd 58, 3-{[4-amino-7-(propan-2-yl)-7H-pyrrolo[2,3-d]pyrimidin-5-yl]ethynyl}-N-cyclopropyl-5-fluorobenzamide], the IC50 in test [1] worked out at 0.004 µM; in test [2], 0.539 µM; in test [3] it was 0.004 µM.
Take `CC1(Cn2cc(C#Cc3cccc(C(=O)NC4CC4)c3)c3c(N)ncnc32)COC1` [cmpd 88, 3-({4-amino-7-[(3-methyloxetan-3-yl)methyl]-7H-pyrrolo[2,3-d]pyrimidin-5-yl}ethynyl)-N-cyclopropylbenzamide]: the IC50 in test [1] worked out at 0.048 µM; in test [2] it was 1.52 µM; in test [3], 0.052 µM.
Turning to `CC(C)n1cc(C#Cc2cc(C(=O)NC3CC3)ccc2C#N)c2c(N)ncnc21` [cmpd 108, 3-{[4-amino-7-(propan-2-yl)-7H-pyrrolo[2,3-d]pyrimidin-5-yl]ethynyl}-4-cyano-N-cyclopropylbenzamide], the IC50 in test [1] came to 0.045 µM; in test [2], 6.11 µM; in test [3], 0.023 µM.
For the molecule `Nc1ncnc2[nH]cc(C#Cc3cccc(NC(=O)Cc4cccc(C(F)(F)F)c4)c3)c12` [cmpd 11, N-[3-(4-Amino-7H-pyrrolo[2,3-d]pyrimidin-5-ylethynyl)-phenyl]-2-(3-trifluoromethyl-phenyl)-acetamide], the half-maximal inhibitory concentration (IC50) was 0.601 µM in test [2] and 0.249 µM in test [3].
Take `CC(C)n1cc(C#Cc2cccc(C(N)=O)c2)c2c(N)ncnc21` [cmpd 110, 3-{[4-amino-7-(propan-2-yl)-7H-pyrrolo[2,3-d]pyrimidin-5-yl]ethynyl}benzamide]: the IC50 in test [1] worked out at 0.279 µM; in test [2] it was 5.88 µM; in test [3], 0.227 µM.
In the same order, the values of `CN1CCC(n2cc(C#Cc3cccc(C(=O)NC4CC4)c3)c3c(N)ncnc32)C1` (centres unmarked) [cmpd 89, 3-{[4-amino-7-(1-methylpyrrolidin-3-yl)-7H-pyrrolo[2,3-d]pyrimidin-5-yl]ethynyl}-N-cyclopropylbenzamide] are 0.127 µM, 6.69 µM and 0.136 µM.
On to `Nc1ncnc2c1c(C#Cc1cccc(C(=O)NC3CC3)c1)cn2-c1cccnc1` [cmpd 68, 3-{[4-amino-7-(pyridin-3-yl)-7H-pyrrolo[2,3-d]pyrimidin-5-yl]ethynyl}-N-cyclopropylbenzamide], for which the values for the half-inhibitory concentration (IC50) in test [1], in test [2] and in test [3] were 0.021 µM, 7.18 µM and 0.043 µM, respectively.
Turning to `COc1cccc(-n2cc(C#Cc3cccc(C(=O)NC4CC4)c3)c3c(N)ncnc32)c1` [cmpd 70, 3-{[4-amino-7-(3-methoxyphenyl)-7H-pyrrolo[2,3-d]pyrimidin-5-yl]ethynyl}-N-cyclopropylbenzamide], the IC50 is 0.213 µM in test [1], above 10 µM in test [2] and 0.213 µM in test [3].
Consider `CCN1CCN(Cc2ccc(NC(=O)c3cccc(C#Cc4cn(C(C)C)c5ncnc(N)c45)c3)cc2C(F)(F)F)CC1` [cmpd 82, 3-{[4-amino-7-(propan-2-yl)-7H-pyrrolo[2,3-d]pyrimidin-5-yl]ethynyl}-N-{4-[(4-ethylpiperazin-1-yl)methyl]-3-(trifluoromethyl)phenyl}benzamide], for which the results for the concentration for half-maximal inhibition (IC50) in test [1], in test [2] and in test [3] were 0.004 µM, 0.046 µM and 0.001 µM, respectively.
For `Nc1ncnc2[nH]cc(C#Cc3cccc(NC(=O)c4ccccc4)c3)c12` [cmpd 9, N-{3-[(4-amino-7H-pyrrolo[2,3-d]pyrimidin-5-yl)ethynyl]phenyl}benzamide], the IC50 in test [2] amounted to 6.91 µM; in test [3], 0.865 µM.
In the case of `Cc1ccc(C(=O)NC2CC2)cc1C#Cc1cn(C(C)C)c2ncnc(N)c12` [cmpd 51, 3-{[4-amino-7-(propan-2-yl)-7H-pyrrolo[2,3-d]pyrimidin-5-yl]ethynyl}-N-cyclopropyl-4-methylbenzamide], the concentration for half-maximal inhibition (IC50) worked out at 0.019 µM in test [1], 1.59 µM in test [2] and 0.016 µM in test [3].
For `CN1CCC(n2cc(C#Cc3cccc(C(=O)NC4CC4)c3)c3c(N)ncnc32)CC1` [cmpd 46, 3-{[4-amino-7-(1-methylpiperidin-4-yl)-7H-pyrrolo[2,3-d]pyrimidin-5-yl]ethynyl}-N-cyclopropylbenzamide], the IC50 in test [1] worked out at 0.02 µM; in test [2], 4.32 µM; in test [3], 0.023 µM.
As to `Nc1ncnc2[nH]cc(C#Cc3cccc(C(=O)NC4CC4)c3)c12` [cmpd 15, 3-[(4-amino-7H-pyrrolo[2,3-d]pyrimidin-5-yl)ethynyl]-N-cyclopropylbenzamide], the IC50 in test [2] came out at 4.37 µM; in test [3] it was 0.192 µM.
Regarding `Nc1ncnc2[nH]cc(C#Cc3cccc(NC(=O)c4cccc(F)c4)c3)c12` [cmpd 26, N-{3-[(4-amino-7H-pyrrolo[2,3-d]pyrimidin-5-yl)ethynyl]phenyl}-3-fluorobenzamide], the half-maximal inhibitory concentration (IC50) in test [1] was determined as 0.49 µM; in test [2] it was 3.67 µM; in test [3], 0.14 µM.
As to `CCC(C)n1cc(C#Cc2cccc(C(=O)NC3CC3)c2)c2c(N)ncnc21` (centres unmarked) [cmpd 85, 3-{[4-amino-7-(butan-2-yl)-7H-pyrrolo[2,3-d]pyrimidin-5-yl]ethynyl}-N-cyclopropylbenzamide], the figures for the IC50 in test [1], in test [2] and in test [3] were 0.024 µM, 1.6 µM and 0.03 µM, respectively.
`CCn1c(C)c(C#Cc2cccc(C(=O)NC3CC3)c2)c2c(N)ncnc21` [cmpd 87, 3-[(4-amino-7-ethyl-6-methyl-7H-pyrrolo[2,3-d]pyrimidin-5-yl)ethynyl]-N-cyclopropylbenzamide]: the IC50 in test [1] was found to be 0.012 µM; in test [2], 1.53 µM; in test [3], 0.019 µM.
In the case of `Nc1ncnc2c1c(C#Cc1cccc(C(=O)NC3CC3)c1)cn2CCF` [cmpd 86, 3-{[4-amino-7-(2-fluoroethyl)-7H-pyrrolo[2,3-d]pyrimidin-5-yl]ethynyl}-N-cyclopropylbenzamide], the values for the IC50 in test [1], in test [2] and in test [3] were 0.018 µM, 1.91 µM and 0.025 µM, respectively.
For the molecule `Nc1ncnc2c1c(C#Cc1cccc(C(=O)NC3CC3)c1)cn2CC1CCC1` [cmpd 95, 3-{[4-amino-7-(cyclobutylmethyl)-7H-pyrrolo[2,3-d]pyrimidin-5-yl]ethynyl}-N-cyclopropylbenzamide], the half-maximal inhibitory concentration (IC50) in test [1] turned out to be 0.032 µM; in test [2] it was 2.45 µM; in test [3], 0.06 µM.
Take `Nc1ncnc2c1c(C#Cc1cccc(C(=O)NC3CC3)c1)cn2CC1CC1` [cmpd 99, 3-{[4-amino-7-(cyclopropylmethyl)-7H-pyrrolo[2,3-d]pyrimidin-5-yl]ethynyl}-N-cyclopropylbenzamide]: the concentration for half-maximal inhibition (IC50) in test [1] was 0.019 µM; in test [2] it was 1.79 µM; in test [3], 0.017 µM.
As for `Cc1ccc(C(=O)Nc2cccc(C#Cc3c[nH]c4ncnc(N)c34)c2)cc1` [cmpd 31, N-{3-[(4-amino-7H-pyrrolo[2,3-d]pyrimidin-5-yl)ethynyl]phenyl}-4-methylbenzamide], the half-maximal inhibitory concentration (IC50) in test [2] was found to be 4.45 µM; in test [3] it was 0.111 µM.
